Experimental data as given in US11819476B2, “Rapamycin analogs and uses thereof” (Janssen Pharmaceutica NV, priority 2019, dated 2023).

System: pS6K1 in MCF7
Test: AlphaLISA Ultra pS6K1 Assay
Assay type: cell-based
Details: Homo sapiens, 1.5 h; MCF7 cells, 90 min incubation
Description: Example 74: AlphaLISA Ultra pS6K1 Assay
Assay Protocol: • 1. Seed MCF-7 cells in Corning 3701 plate and incubate for 20˜24 hour. 12,000˜16,000 cells will be seeded in 36 μL medium per well. • 2. Change the culture medium with fresh medium and incubate for another 2 hours. • 3. Add 12 μL (4×) compounds into the cell plate by HAMILTON. Final DMSO concentration is 0.5%. Incubate for 90 minutes. • 4. Aspirate 38 μL by HAMILTON, 10 μL rest per well. • 5. Add 10 μL 2× lysis buffer using HAMILTON; total volume in wells is 20 μL. Allow cells to shake for 30 min. Cover plate by plastic foil and store plate at −80° C. up to analysis. • 6. Thaw cell lysate at RT and transfer 10 μL lysate to assay plate (Optiplate-384). • 7. Add 5 μL acceptor beads into assay plate and incubation for 2 hours • 8. Add 5 μL donor beads and incubation for 2 hours • 9. Count the plate by EnSpire Multimode Plate Reader

| Structure (SMILES) | IC50 [µM] |
| --- | --- |
| CO[C@@H]1C[C@H](C[C@@H](C)[C@@H]2CC(=O)[C@H](C)/C=C(\C)[C@@H](O)[C@@H](OC)C(=O)[C@H](C)C[C@H](C)/C=C/C=C/C=C(\C)C(OCCCC(=O)O)C[C@@H]3CC[C@@H](C)[C@@](O)(O3)C(=O)C(=O)N3CCCC[C@H]3C(=O)O2)CC[C@H]1OCCO (stereo partly drawn) [Example I-30, 4-[[(21E,23E,25E,26E,33R,34S,35R,36R,38S,40S,43S,44R,45R,55R)-44,55-dihydroxy-43-[(1R)-2-[(1S,3R,4R)-4-(2-hydroxyethoxy)-3-methoxy-cyclohexyl]-1-methyl-ethyl]-45-methoxy-33,34,35,36,46,47-hexamethyl-48,49,50,51,52-pentaoxo-67,68-dioxa-56-azatricyclohexatriaconta-21,23,25(46),26(47)-tetraen-42-yl]oxy]butanoic acid] | ≥ 0.1 |
| COCCSC1C[C@@H]2CC[C@@H](C)[C@@](O)(O2)C(=O)C(=O)N2CCCC[C@H]2C(=O)O[C@H]([C@H](C)C[C@@H]2CC[C@@H](O)[C@H](OC)C2)CC(=O)[C@H](C)/C=C(\C)[C@@H](O)[C@@H](OC)C(=O)[C@H](C)C[C@H](C)/C=C/C=C/C=C/1C (stereo partly drawn) [Example I-31, (22E,24E,26E,27E,33R,34S,35R,36R,38S,40S,43S,44S,45R,54R)-44,54-dihydroxy-43-[(1R)-2-[(1S,3R,4R)-4-hydroxy-3-methoxy-cyclohexyl]-1-methyl-ethyl]-45-methoxy-42-[2-(2-methoxyethoxy)ethylsulfanyl]-33,34,35,36,46,47-hexamethyl-64,65-dioxa-55-azatricyclohexatriaconta-22,24,26(46),27(47)-tetraene-48,49,50,51,52-pentone] | 0.001 to 0.01 |
| CO[C@@H]1C[C@H](C[C@@H](C)[C@@H]2CC(=O)[C@H](C)/C=C(\C)[C@@H](O)[C@@H](OC)C(=O)[C@H](C)C[C@H](C)/C=C/C=C/C=C(\C)C(NC(=O)OCCOCCO)C[C@@H]3CC[C@@H](C)[C@@](O)(O3)C(=O)C(=O)N3CCCC[C@H]3C(=O)O2)CC[C@H]1O (stereo partly drawn) [Example I-32, 2-(2-hydroxyethoxy)ethyl N-[(21E,23E,25E,26E,32R,33S,34R,35R,37S,39S,42S,43R,44R,54R)-43,54-dihydroxy-42-[(1R)-2-[(1S,3R,4R)-4-hydroxy-3-methoxy-cyclohexyl]-1-methyl-ethyl]-44-methoxy-32,33,34,35,45,46-hexamethyl-47,48,49,50,51-pentaoxo-67,68-dioxa-56-azatricyclohexatriaconta-21,23,25(45),26(46)-tetraen-41-yl]carbamate] | 0.001 to 0.01 |
| CO[C@@H]1C[C@H](C[C@@H](C)[C@@H]2CC(=O)[C@H](C)/C=C(\C)[C@@H](O)[C@@H](OC)C(=O)[C@H](C)C[C@H](C)/C=C/C=C/C=C(\C)C(OCCCCCO)C[C@@H]3CC[C@@H](C)[C@@](O)(O3)C(=O)C(=O)N3CCCC[C@H]3C(=O)O2)CC[C@H]1O (stereo partly drawn) [Example I-34, (21E,23E,25E,26E,33R,34S,35R,36R,38S,40S,43S,44R,45R,54R)-44,54-dihydroxy-43-[(1R)-2-[(1S,3R,4R)-4-hydroxy-3-methoxy-cyclohexyl]-1-methyl-ethyl]-42-(5-hydroxypentoxy)-45-methoxy-33,34,35,36,46,47-hexamethyl-65,66-dioxa-55-azatricyclohexatriaconta-21,23,25(46),26(47)-tetraene-48,49,50,51,52-pentone] | 0.0001 to 0.001 |
| COc1ccc([C@@H]2C[C@@H]3CC[C@@H](C)[C@@](O)(O3)C(=O)C(=O)N3CCCC[C@H]3C(=O)O[C@H]([C@H](C)C[C@@H]3CC[C@@H](O)[C@H](OC)C3)CC(=O)[C@H](C)/C=C(\C)[C@H](O)[C@@H](OC)C(=O)[C@H](C)C[C@H](C)/C=C/C=C/C=C/2C)c(OC)c1 [Example I-37, (26E,28E,30E,31E,36R,37S,38R,39R,41S,43S,44R,46S,47R,48R,57R)-44-(2,4-dimethoxyphenyl)-47,57-dihydroxy-46-[(1R)-2-[(1S,3R,4R)-4-hydroxy-3-methoxy-cyclohexyl]-1-methyl-ethyl]-48-methoxy-36,37,38,39,49,50-hexamethyl-67,68-dioxa-58-azatricyclohexatriaconta-26,28,30(49),31(50)-tetraene-51,52,53,54,55-pentone] | ≥ 0.1 |
| COc1ccc([C@H]2C[C@@H]3CC[C@@H](C)[C@@](O)(O3)C(=O)C(=O)N3CCCC[C@H]3C(=O)O[C@H]([C@H](C)C[C@@H]3CC[C@@H](O)[C@H](OC)C3)CC(=O)[C@H](C)/C=C(\C)[C@H](O)[C@@H](OC)C(=O)[C@H](C)C[C@H](C)/C=C/C=C/C=C/2C)c(OC)c1 [Example I-38, (26E,28E,30E,31E,36R,37S,38R,39R,41S,43S,44S,46S,47R,48R,57R)-44-(2,4-dimethoxyphenyl)-47,57-dihydroxy-46-[(1R)-2-[(1S,3R,4R)-4-hydroxy-3-methoxy-cyclohexyl]-1-methyl-ethyl]-48-methoxy-36,37,38,39,49,50-hexamethyl-67,68-dioxa-58-azatricyclohexatriaconta-26,28,30(49),31(50)-tetraene-51,52,53,54,55-pentone] | 0.01 to 0.1 |

System: pS6K1 T389 in PC3 cells (mTORC1 pathway)
Test: Western blot based pS6K1 assay (mTORC1 pathway)
Assay type: cell-based
Details: 24 hours
Description: Example 76: Western Blot Based pS6K1 and pAKT Assay at 24 and 48 Hour Timepoints
Assay Protocol: • 1. Seed six well plate with 500,000 PC3 cells per well and incubate for […]. • 2. Add compounds into the cell plate. Incubate for 24 to 48 hours. • 4. Plate is placed on ice and the media is removed via aspiration. The wells are washed with 1 mL of 1×PBS and then fully aspirated. • 5. 110 μL of 1% Triton Lysis Buffer is added and each well is scraped vigorously. • 6. Cell homogenates are transferred to 1.5 mL eppendorf tubes on ice and spun down at 4° C. for 10 minutes at 10,000 rpm. • 7. Protein concentration of resulting cell lysates were quantified utilizing a Bradford assay and the samples run analyzed via Western blot on 4-12% Bis/Tris gels with 1×MES buffer. • 8. The gels were transferred onto membranes at 50V for 100 minutes, blocked with Odyssey Blocking buffer for 30 minutes then incubated overnight with primary antibody (pS6K1 T389 Rabbit or pAkt S473 Rabbit) overnight at 4° C. on a rotator. • 9. The membranes were washed 3× with TBS-T with a 5 minute incubation between each wash then incubated with secondary antibody (LiCor IRDye 800 Donkey Anti Rabbit) for at least 30 minutes. • 10. The membranes were washed 3× with TBS-T with a 5 minute incubation between each wash. • 11. The gels were then incubated for 5 minutes with PBS at room temperature then imaged using a Li-Cor.
PC3 cells were treated with everolimus (0.1 μM, 0.01 μM, and 0.001 μM) or I-9 ([…], 0.1 μM, 0.01 μM, and 0.001 μM) for 24 hours.
The methods employed were substantially similar to those described above. Compounds were evaluated in PC3 cells. Additional cell lines that may be used include Jurkat cells, wild-type mouse embryotic fibroblast (MEF) cells, tuberous sclerosis 2 (TSC2) negative (TSC−/−) MEF cells, and tuberous sclerosis 2 (TSC2) positive (TSC+/+) MEF cells. Cells are incubated with compounds of the present invention for various time periods (e.g., 5 minutes, 15 minutes, 30 minutes, 90 minutes, 24 hours, or 48 hours), and evaluated according to known methodologies, such as those herein described.

| Structure (SMILES) | inhibition of the mTORC1 pathway (pS6K1, Western blot) |
| --- | --- |
| CO[C@@H]1C[C@H](C[C@@H](C)[C@@H]2CC(=O)[C@H](C)/C=C(\C)[C@@H](O)[C@@H](OC)C(=O)[C@H](C)C[C@H](C)/C=C/C=C/C=C(\C)[C@@H](OCCC3CCNC3=O)C[C@@H]3CC[C@@H](C)[C@@](O)(O3)C(=O)C(=O)N3CCCC[C@H]3C(=O)O2)CC[C@H]1OCCO (stereo partly drawn) [Example I-3, (23E,25E,27E,28E,34R,35S,36R,37R,39S,42S,44S,45S,46R,47R,57R)-46,57-dihydroxy-45-[(1R)-2-[(1S,3R,4R)-4-(2-hydroxyethoxy)-3-methoxy-cyclohexyl]-1-methyl-ethyl]-47-methoxy-34,35,36,37,48,49-hexamethyl-44-[2-(2-oxopyrrolidin-3-yl)ethoxy]-69,70-dioxa-59-azatricyclohexatriaconta-23,25,27(48),28(49)-tetraene-50,51,53,54,55-pentone] | strong inhibition |
| CO[C@@H]1C[C@H](C[C@@H](C)[C@@H]2CC(=O)[C@H](C)/C=C(\C)[C@@H](O)[C@@H](OC)C(=O)[C@H](C)C[C@H](C)/C=C/C=C/C=C(\C)[C@@H](OCCCC3CCNC3=O)C[C@@H]3CC[C@@H](C)[C@@](O)(O3)C(=O)C(=O)N3CCCC[C@H]3C(=O)O2)CC[C@H]1OCCO (stereo partly drawn) [Example I-15, (23E,25E,27E,28E,35R,36S,37R,38R,40S,43S,45S,46S,47R,48R,58R)-47,58-dihydroxy-46-[(1R)-2-[(1S,3R,4R)-4-(2-hydroxyethoxy)-3-methoxy-cyclohexyl]-1-methyl-ethyl]-48-methoxy-35,36,37,38,49,50-hexamethyl-45-[3-(2-oxopyrrolidin-3-yl)propoxy]-70,71-dioxa-60-azatricyclohexatriaconta-23,25,27(49),28(50)-tetraene-51,52,54,55,56-pentone] | strong inhibition |
| CO[C@@H]1C[C@H](C[C@@H](C)[C@@H]2CC(=O)[C@H](C)/C=C(\C)[C@@H](O)[C@@H](OC)C(=O)[C@H](C)C[C@H](C)/C=C/C=C/C=C(\C)[C@@H](OCCCCC(N)=O)C[C@@H]3CC[C@@H](C)[C@@](O)(O3)C(=O)C(=O)N3CCCC[C@H]3C(=O)O2)CC[C@H]1OCCO [Example I-48] | strong inhibition |
